Our source for the Activity values is ChEMBL document CHEMBL4627267, “A novel series of cysteine-dependent, allosteric inverse agonists of the nuclear receptor RORγt” (Bioorg Med Chem Lett, 2020).

Calls of active or inactive are those of the source. The rule behind the calls is not given here.

Series [1] in a line: Cytotoxicity against human CD4-positive T cells assessed as reduction in cell viability at 100 nM. The format is cell-based. The note with it: 0.1 µM.
For series [2], the system named is Mus musculus. Briefly: Antiarthritic activity in collagen/complete freund's adjuvant-induced DBA/1 mouse model of arthritis assessed as reduction in paw thickness at 3 mg/kg/day, po administered via gavage starting from 21 day post collagen/CFA challenge and measured up to 42 days. The class given is functional, organism-based.
Series [3] concerns the target T1, Nuclear receptor ROR-alpha (Homo sapiens) (UniProt P35398).
T1 sequence (whole entry): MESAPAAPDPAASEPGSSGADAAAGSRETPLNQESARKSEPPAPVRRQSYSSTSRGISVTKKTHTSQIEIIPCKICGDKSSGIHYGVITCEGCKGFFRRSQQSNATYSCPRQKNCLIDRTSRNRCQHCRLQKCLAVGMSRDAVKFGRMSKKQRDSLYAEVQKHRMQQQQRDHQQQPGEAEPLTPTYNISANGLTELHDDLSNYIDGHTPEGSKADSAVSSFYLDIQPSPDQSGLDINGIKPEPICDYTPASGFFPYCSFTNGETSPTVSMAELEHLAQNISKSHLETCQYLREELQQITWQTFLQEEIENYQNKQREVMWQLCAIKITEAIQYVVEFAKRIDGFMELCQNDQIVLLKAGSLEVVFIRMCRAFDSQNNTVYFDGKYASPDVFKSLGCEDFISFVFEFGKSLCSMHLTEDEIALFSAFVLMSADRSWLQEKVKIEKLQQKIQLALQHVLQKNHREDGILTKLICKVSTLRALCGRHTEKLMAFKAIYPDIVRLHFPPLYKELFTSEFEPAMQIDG
Briefly: Inverse agonist activity at human full-length RORalpha expressed in Jurkat cells co-transfected with 5 copies of ROR response element after 18 hrs by luciferase based reporter gene assay. The class given is cell-based.

Series [4] deals with Mus musculus. Briefly: Antiarthritic activity in collagen/complete freund's adjuvant-induced DBA/1 mouse model of arthritis assessed as reduction in clinical score at 3 mg/kg/day, po administered via gavage starting from 21 day post collagen/CFA challenge and measured up to 42 days. The class given is functional, organism-based.
Series [5] deals with T2, Nuclear receptor ROR-beta (Homo sapiens) (UniProt Q92753).
T2 sequence (whole entry): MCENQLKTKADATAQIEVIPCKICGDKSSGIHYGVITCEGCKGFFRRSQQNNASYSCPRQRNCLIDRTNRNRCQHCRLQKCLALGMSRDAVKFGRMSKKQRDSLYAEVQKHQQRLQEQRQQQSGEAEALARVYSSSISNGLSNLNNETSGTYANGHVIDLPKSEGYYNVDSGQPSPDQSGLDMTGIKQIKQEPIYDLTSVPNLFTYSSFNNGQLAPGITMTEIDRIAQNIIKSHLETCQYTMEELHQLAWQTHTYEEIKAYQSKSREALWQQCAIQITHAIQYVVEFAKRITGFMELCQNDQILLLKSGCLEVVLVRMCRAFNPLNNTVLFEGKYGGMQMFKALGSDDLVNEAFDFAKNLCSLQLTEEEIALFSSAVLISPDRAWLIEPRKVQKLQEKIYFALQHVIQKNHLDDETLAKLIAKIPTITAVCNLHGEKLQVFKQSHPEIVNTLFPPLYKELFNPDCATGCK
Put plainly: Inverse agonist activity at human full-length RORbeta expressed in Jurkat cells co-transfected with 5 copies of ROR response element after 18 hrs by luciferase based reporter gene assay. The format is cell-based. Background: In a reporter assay the amount or activity of a reporter protein is the signal.

Regarding `Cc1cc(-c2nc(-c3ccc(F)cc3)c3c(n2)[C@]2(C)C=C(C#N)C(=O)[C@H](C)[C@H]2CC3)ccn1`, the Activity in series [1] fell in the range of 10 to 15%. Moreover, the result with Mus musculus [2] and with Mus musculus [4] was Active. Also, the outcome in series [3] and in series [5] was inactive.

In the case of `CCC[C@H]1C(=O)C(C#N)=C[C@@]2(C)c3nc(-c4ccnc(C5CC5)c4)nc(-c4ccccc4F)c3CC[C@H]12`, the outcome in series [3] and in series [5] was inactive.
